Where two headings read alike, the source gives them in different places.
Key:
[1] = Liver microsomal stability, rat; conditions: for Rem @ RLM × 30 min: rat liver microsomes, 1 μM compound, 0.5 mg/ml protein; for half-life at 1 μM / microsomal CLint at 1 μM: rat, liver microsomes, pH 7.4
Experimental: The assessment of metabolic stability of testing compounds was performed using human, mouse, rat, dog and monkey liver microsomes (20 mg protein/ml). Each reaction mixture contained 42.5 μL of 0.1 M potassium phosphate buffer pH 7.4, containing respective LM protein (final concentration 0.5 mg/ml). 2.5 μL of the compound stock solution was added in it (1 μM final concentration). The reaction was initiated by the addition of 5 μL NADPH solution (final Concentration 1 mM). At different time points (0, 5, 15, and 30 minutes), samples were quenched with 200 μL of cold acetonitrile containing ISTD Propranolol. Samples were centrifuged at 3500 rpm for 20 mM at 4° C. Supernatant was subjected to LC-MS/MS analysis for quantification. Verapamil was used as a positive control.

CYP-2C19 = CYP-2C19 (Homo sapiens (Human), UniProt P33261); experiment: CYP panel profile: P450 inhibition, CYP-2C19; format: in vitro ADME; conditions: human liver microsomes
Experimental: (§1) 5. CYP Panel Profile: P450 Inhibition
(§2) From 10 mM stock solutions of test compounds, a dilution plate was prepared diluting serially starting from 5 mM up to 2 μM in Acetonitrile/DMSO or Methanol/DMSO Human liver Microsomes were added at required concentration as per specific CYP isoform in a deep well assay plate (1A2, 2C9, 2D6, 2B6, 2C8, 2C19, and 3A4). Compounds were spiked in all wells from dilution plate at final concentrations starting from 50 μM up to 0.02 μM, except for positive and negative control. Specific substrate were added to all wells and reactions were pre-incubated for 10 min. To start reactions, NADPH was added to all wells at 1 mM final concentration. Assay plate was mixed by vortexing and incubated at 37° C. for […] for 3A4.20 min for (1A2, 2C9, 2B6, 2C8, 2D6) and […] for 2C19. A quencher with chilled acetonitrile suitable internal standard was added. Samples were centrifuged and supernatants were collected and subjected to LC-MS/MS analysis for determination.

CYP-1A2 = CYP-1A2 (Homo sapiens (Human), UniProt P05177); experiment: CYP panel profile: P450 inhibition, CYP-1A2; format: in vitro ADME
Experimental: as §1, §2

CYP-2C8 = CYP-2C8 (Homo sapiens (Human), UniProt P10632); experiment: CYP panel profile: P450 inhibition, CYP-2C8; format: in vitro ADME; conditions: human liver microsomes
Experimental: as §1, §2

CYP-2C9 = CYP-2C9 (Homo sapiens (Human), UniProt P11712); experiment: CYP panel profile: P450 inhibition, CYP-2C9; format: in vitro ADME; conditions: human liver microsomes
Experimental: as §1, §2

[2] = Liver microsomal stability, human; conditions: for Rem @ HLM × 30 min: human liver microsomes, 1 μM compound, 0.5 mg/ml protein; for half-life at 1 μM / microsomal CLint at 1 μM: human, liver microsomes, pH 7.4
CYP-2D6 = CYP-2D6 (Homo sapiens (Human), UniProt P10635); experiment: CYP panel profile: P450 inhibition, CYP-2D6; format: in vitro ADME; conditions: human liver microsomes
Experimental: as §1, §2

CYP-2B6 = CYP-2B6 (Homo sapiens (Human), UniProt P20813); experiment: CYP panel profile: P450 inhibition, CYP-2B6; format: in vitro ADME; conditions: human liver microsomes
Experimental: as §1, §2

[3] = Liver microsomal stability, mouse; conditions: for Rem @ MLM × 30 min: mouse liver microsomes, 1 μM compound, 0.5 mg/ml protein; for half-life at 1 μM / microsomal CLint at 1 μM: mouse, liver microsomes, pH 7.4
[4] = molecular target: aryl hydrocarbon receptor (AhR) (Mus musculus (Mouse), UniProt P30561); experiment: AhR ligand screening: AhRE-luciferase reporter in transfected Hepa1 cells; format: cell-based; conditions: for Fold @ 1 nM: fold change of luciferase expression at 1 nM test compound relative to vehicle (0.1% DMSO); for Fold @ 100 nM: fold change of luciferase expression at 100 nM test compound relative to vehicle (0.1% DMSO); for Fold @ 10 uM: fold change of luciferase expression at 10 uM test compound relative to vehicle (0.1% DMSO); for Fold relative to benchmark @ 100 nM: luciferase expression at 100 nM test compound relative to 100 nM benchmark compound 11-cl-BBQ
How it was run: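 Mouse Hepa1 cells transfected with an AhRE-luciferase reporter were plated at 1×10^4 cells/well, grown overnight, then exposed to compounds. Cell lysates were assayed for luciferase by luminometry, with results given as fold induction over 0.1% DMSO vehicle.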

CYP-3A4 = CYP-3A4 (Homo sapiens (Human), UniProt P08684); experiment: CYP panel profile: P450 inhibition, CYP-3A4; format: in vitro ADME; conditions: human liver microsomes
Experimental: as §1, §2

[5] = human liver microsomes, read-out: CYP-1A2 IC50

Sequence of CYP-2B6 (P20813 whole entry): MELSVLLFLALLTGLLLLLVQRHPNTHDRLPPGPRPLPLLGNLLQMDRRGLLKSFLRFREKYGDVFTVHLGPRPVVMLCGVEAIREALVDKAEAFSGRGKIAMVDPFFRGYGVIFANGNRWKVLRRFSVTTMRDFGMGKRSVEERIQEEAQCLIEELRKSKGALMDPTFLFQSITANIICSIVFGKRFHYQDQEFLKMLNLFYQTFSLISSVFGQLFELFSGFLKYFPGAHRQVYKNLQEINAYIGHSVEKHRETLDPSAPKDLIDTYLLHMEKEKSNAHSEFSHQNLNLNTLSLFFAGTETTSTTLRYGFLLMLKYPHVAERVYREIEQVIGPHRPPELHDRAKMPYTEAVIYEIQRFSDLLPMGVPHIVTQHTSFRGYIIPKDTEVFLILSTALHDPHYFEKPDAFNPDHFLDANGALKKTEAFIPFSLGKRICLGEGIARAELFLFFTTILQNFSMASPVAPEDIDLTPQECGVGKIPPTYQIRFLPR
Sequence of CYP-2D6 (P10635 whole entry): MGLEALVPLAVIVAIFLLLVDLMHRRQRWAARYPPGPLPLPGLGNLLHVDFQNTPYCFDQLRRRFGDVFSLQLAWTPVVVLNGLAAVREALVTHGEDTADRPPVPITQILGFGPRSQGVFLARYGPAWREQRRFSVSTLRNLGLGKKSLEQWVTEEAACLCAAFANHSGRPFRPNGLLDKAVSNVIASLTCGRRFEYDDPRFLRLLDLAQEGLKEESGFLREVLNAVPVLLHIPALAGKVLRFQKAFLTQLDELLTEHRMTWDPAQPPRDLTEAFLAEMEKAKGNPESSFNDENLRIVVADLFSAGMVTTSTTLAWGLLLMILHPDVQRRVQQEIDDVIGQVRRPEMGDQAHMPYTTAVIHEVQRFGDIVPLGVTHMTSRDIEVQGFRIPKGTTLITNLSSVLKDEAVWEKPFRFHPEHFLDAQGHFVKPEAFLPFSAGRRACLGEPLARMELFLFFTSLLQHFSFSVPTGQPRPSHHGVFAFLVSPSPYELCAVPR
Sequence of CYP-1A2 (P05177 whole entry): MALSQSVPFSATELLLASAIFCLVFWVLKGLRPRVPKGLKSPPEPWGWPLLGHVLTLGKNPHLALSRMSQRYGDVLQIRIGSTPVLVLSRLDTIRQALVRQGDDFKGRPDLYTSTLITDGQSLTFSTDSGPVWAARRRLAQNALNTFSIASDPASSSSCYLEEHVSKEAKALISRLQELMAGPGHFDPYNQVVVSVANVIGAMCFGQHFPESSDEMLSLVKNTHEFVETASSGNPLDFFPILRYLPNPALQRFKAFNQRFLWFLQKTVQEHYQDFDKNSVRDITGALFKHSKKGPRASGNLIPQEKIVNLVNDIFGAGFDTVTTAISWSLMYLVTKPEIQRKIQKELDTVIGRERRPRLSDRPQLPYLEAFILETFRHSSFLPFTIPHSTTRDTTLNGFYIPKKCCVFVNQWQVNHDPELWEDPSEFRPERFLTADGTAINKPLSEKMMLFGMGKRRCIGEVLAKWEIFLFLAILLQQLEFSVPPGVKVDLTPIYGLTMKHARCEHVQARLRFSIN
Sequence of CYP-2C19 (P33261 whole entry): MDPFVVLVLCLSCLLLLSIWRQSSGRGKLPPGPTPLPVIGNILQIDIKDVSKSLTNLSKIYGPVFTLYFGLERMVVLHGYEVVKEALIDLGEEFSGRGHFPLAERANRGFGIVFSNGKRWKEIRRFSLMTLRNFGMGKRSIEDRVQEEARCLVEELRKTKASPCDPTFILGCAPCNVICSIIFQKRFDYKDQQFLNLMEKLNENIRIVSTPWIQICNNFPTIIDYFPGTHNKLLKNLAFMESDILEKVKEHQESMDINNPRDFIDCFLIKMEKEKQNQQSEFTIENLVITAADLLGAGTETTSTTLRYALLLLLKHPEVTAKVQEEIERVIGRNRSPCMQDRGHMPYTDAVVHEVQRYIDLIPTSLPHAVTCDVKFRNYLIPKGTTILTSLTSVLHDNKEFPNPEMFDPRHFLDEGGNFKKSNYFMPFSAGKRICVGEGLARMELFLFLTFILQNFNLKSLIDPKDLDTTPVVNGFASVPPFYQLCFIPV
Sequence of aryl hydrocarbon receptor (AhR) (P30561 10-805): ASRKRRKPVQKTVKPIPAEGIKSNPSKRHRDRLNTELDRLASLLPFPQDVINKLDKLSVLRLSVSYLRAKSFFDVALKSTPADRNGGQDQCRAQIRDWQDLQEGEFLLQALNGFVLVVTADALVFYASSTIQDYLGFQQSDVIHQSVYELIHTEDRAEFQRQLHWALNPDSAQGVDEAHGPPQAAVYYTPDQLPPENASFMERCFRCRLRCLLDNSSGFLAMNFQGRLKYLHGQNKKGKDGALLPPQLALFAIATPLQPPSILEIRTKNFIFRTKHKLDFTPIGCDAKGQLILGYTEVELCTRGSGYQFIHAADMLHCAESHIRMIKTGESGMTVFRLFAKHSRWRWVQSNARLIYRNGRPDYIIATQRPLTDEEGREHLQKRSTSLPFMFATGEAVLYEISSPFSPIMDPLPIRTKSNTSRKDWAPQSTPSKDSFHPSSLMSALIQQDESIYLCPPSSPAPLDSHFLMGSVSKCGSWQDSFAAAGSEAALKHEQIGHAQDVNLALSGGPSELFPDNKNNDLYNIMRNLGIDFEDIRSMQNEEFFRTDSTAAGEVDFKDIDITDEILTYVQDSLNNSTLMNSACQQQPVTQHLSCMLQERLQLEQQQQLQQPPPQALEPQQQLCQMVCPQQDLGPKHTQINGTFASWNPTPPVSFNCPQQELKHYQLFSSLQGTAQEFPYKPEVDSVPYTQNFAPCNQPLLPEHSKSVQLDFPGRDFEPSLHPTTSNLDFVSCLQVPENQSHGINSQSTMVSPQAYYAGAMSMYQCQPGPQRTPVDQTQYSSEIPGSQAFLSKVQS
Sequence of aryl hydrocarbon receptor (AhR) (P53762 whole entry partner): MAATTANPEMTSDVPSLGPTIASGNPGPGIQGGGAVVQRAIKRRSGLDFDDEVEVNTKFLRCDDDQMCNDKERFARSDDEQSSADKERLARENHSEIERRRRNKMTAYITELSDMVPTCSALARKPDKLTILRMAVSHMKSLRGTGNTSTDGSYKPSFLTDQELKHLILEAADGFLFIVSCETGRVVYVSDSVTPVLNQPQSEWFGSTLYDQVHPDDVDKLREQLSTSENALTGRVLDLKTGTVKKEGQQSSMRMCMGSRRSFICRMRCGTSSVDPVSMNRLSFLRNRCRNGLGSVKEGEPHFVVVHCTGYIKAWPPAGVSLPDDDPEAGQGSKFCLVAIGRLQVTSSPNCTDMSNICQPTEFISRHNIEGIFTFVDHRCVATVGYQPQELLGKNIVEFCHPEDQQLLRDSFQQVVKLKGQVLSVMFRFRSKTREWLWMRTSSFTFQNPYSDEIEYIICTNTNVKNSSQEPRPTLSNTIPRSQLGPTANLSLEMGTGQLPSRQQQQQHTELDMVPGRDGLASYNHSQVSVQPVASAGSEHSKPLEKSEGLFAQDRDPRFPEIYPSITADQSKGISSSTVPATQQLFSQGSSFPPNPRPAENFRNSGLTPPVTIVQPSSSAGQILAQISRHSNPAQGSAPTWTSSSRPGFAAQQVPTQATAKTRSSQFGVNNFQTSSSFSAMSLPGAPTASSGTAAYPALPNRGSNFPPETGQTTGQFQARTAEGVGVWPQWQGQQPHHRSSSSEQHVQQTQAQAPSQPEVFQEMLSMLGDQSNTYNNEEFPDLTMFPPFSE
Sequence of CYP-3A4 (P08684 whole entry): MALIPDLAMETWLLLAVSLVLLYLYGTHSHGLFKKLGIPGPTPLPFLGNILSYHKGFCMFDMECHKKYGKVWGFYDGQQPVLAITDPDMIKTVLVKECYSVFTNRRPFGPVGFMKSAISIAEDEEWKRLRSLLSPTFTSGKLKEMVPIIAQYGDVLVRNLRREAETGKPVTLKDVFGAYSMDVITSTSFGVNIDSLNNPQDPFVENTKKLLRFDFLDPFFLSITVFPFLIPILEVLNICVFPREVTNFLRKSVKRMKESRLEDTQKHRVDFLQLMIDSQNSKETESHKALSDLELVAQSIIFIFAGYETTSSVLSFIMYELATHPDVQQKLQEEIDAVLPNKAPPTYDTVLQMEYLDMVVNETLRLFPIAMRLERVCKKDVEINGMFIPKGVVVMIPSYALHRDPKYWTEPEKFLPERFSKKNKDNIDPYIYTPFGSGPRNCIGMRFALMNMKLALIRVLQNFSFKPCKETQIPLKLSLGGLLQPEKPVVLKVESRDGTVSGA
Sequence of CYP-2C9 (P11712 whole entry): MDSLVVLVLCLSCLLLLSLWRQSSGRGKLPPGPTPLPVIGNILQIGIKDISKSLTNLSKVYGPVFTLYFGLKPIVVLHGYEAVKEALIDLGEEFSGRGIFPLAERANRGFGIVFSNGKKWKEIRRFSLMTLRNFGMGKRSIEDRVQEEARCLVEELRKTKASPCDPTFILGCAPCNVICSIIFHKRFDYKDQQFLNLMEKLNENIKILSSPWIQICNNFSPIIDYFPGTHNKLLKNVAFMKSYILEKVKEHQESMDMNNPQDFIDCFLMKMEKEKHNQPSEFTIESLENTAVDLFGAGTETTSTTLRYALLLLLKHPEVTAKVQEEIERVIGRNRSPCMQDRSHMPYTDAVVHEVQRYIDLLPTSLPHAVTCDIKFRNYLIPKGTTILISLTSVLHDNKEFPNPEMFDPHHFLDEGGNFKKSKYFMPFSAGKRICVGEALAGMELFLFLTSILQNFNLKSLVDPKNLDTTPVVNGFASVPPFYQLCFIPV

Row | SMILES | Rem @ RLM × 30 min [1] | half-life at 1 μM [1] | microsomal CLint at 1 μM [1] | IC50 (CYP-2C19) | IC50 (CYP-1A2; [5]) | IC50 (CYP-2C8) | IC50 (CYP-2C9) | Rem @ HLM × 30 min [2] | half-life at 1 μM [2] | microsomal CLint at 1 μM [2] | IC50 (CYP-2D6) | IC50 (CYP-2B6) | Rem @ MLM × 30 min [3] | half-life at 1 μM [3] | microsomal CLint at 1 μM [3] | Fold @ 1 nM [4] | Fold @ 100 nM [4] | Fold @ 10 uM [4] | Fold relative to benchmark @ 100 nM [4] | IC50 (CYP-3A4) | other results
1 | O=C(c1ccc(F)c(F)c1)n1c(-c2ccc(-c3ccccc3)cc2)nc2ccc(Cl)cc21 [Compound 644] | 36.8% | 28.7 min | 48 µL/min/mg | > 50000 nM | 4.7 µM | 1.7 µM | 2.7 µM | 69.8% | 77.9 min | 18 µL/min/mg | 8.2 µM | > 50 µM | 71.7% | 70.5 min | 20 µL/min/mg | 1 fold | 1 fold | 2 fold | 0.11 fold | > 50 µM | –
2 | O=C(c1ccc(F)c(F)c1)n1c(-c2cccc3ccccc23)cc2cc(Cl)ccc21 [Compound 973] | 46.3% | 26.5 min | 52.3 µL/min/mg | 23100 nM | – | > 50 µM | > 50 µM | 34.2% | 16.7 min | 83.1 µL/min/mg | > 50 µM | > 50 µM | 58.7% | 39.9 min | 34.8 µL/min/mg | 1 fold | 1 fold | 1 fold | 0.02 fold | > 50 µM | IC50 (CYP-1A2): > 50 µM
3 | O=C(C1CC1)n1c(-c2cccc3ccccc23)cc2cc(Cl)ccc21 [Compound 972] | 20.7% | 13.3 min | 105 µL/min/mg | 200 nM | 7 µM | > 48.8 µM | 7 µM | 73.0% | 74.9 min | 18.5 µL/min/mg | > 50 µM | 4.3 µM | 26.7% | 15.9 min | 87.1 µL/min/mg | 1 fold | 2 fold | 45 fold | 0.04 fold | > 50 µM | –
4 | O=S(=O)(c1ccc(C(F)(F)F)cc1)n1c(-c2cccc3ccccc23)nc2ccc(Cl)cc21 [Compound 782] | 31.8% | 17.8 min | 78 µL/min/mg | 6000 nM | 47.9 µM | > 50 µM | > 50 µM | 66.4% | 50.5 min | 27.4 µL/min/mg | > 50 µM | > 50 µM | 14.9% | 10.9 min | 127 µL/min/mg | 1 fold | 23 fold | 19 fold | 0.92 fold | 0.4 µM | –
5 | COc1ccc(C(=O)n2c(-c3cccc4ccccc34)nc3cc(Cl)ccc32)cc1 [Compound 535, (5-chloro-2-(naphthalen-1-yl)-1H-benzo[d]imidazol-1-yl)(4-methoxyphenyl)methanone] | – | – | – | 2100 nM | 3.9 µM | 21.8 µM | 2.5 µM | – | – | – | > 50 µM | 21.5 µM | – | – | – | 1 fold | 38 fold | 44 fold | 0.95 fold | 0.2 µM | –
6 | O=C(c1ccccc1)n1c(-c2cccc3ccccc23)nc2cc(OC(F)(F)F)ccc21 [Compound 703] | – | – | – | 500 nM | 0.8 µM | 4.2 µM | 5.3 µM | – | – | – | > 50 µM | 12 µM | – | – | – | 1 fold | 22 fold | 23 fold | 0.85 fold | 10.3 µM | –
7 | Clc1ccc2c(c1)nc1n2Cc2cccc3cccc-1c23 [Compound 435, 6-chloro-3,10-diazapentacyclo[10.7.1.0^2,10.0^4,9.0^16,20]icosa-1(19),2,4(9),5,7,12,14,16(20),17-nonaene] | – | – | – | > 50000 nM | – | 19.2 µM | > 50 µM | – | – | – | > 50 µM | > 50 µM | – | – | – | 4 fold | 28 fold | 60 fold | 0.7 fold | 5.3 µM | IC50 (CYP-1A2): < 0.02 µM
8 | COC(=O)c1ccc2c(c1)nc(-c1cccc3ccccc13)n2C(=O)c1ccc(F)c(F)c1 [Compound 848] | – | – | – | 1100 nM | 2.6 µM | 3.5 µM | 6.3 µM | – | – | – | 2.9 µM | 16.7 µM | – | – | – | 1 fold | 1 fold | 5 fold | 0.04 fold | 13.7 µM | –
9 | COC(=O)c1ccc2nc(-c3cccc4ccccc34)n(C(=O)c3ccc(F)c(F)c3)c2c1 [Compound 849] | – | – | – | 1500 nM | 15.1 µM | 4.1 µM | 7.7 µM | – | – | – | 19.3 µM | > 48 µM | – | – | – | 1 fold | 1 fold | 1 fold | 0.04 fold | > 50 µM | –
10 | O=C(C1CCCCC1)n1c(-c2cccc3ccccc23)nc2ccc(Cl)cc21 [Compound 640] | – | – | – | 2400 nM | 0.6 µM | 2.3 µM | 4.5 µM | – | – | – | 29 µM | 31.1 µM | – | – | – | 1 fold | 10 fold | 15 fold | 1.21 fold | 3.8 µM | –
11 | O=C(c1ccc(F)c(F)c1)n1c(-c2ccc(-c3ccccc3)cc2)nc2cc(Cl)ccc21 [Compound 643] | – | – | – | > 50000 nM | 20.7 µM | 12.3 µM | 9.2 µM | – | – | – | > 50 µM | > 50 µM | – | – | – | 1 fold | 1 fold | 2 fold | 0.11 fold | > 50 µM | –
12 | O=C(c1ccccc1)n1c(-c2cccc3ccccc23)nc2cc(Cl)c(Cl)cc21 [Compound 693] | – | – | – | 24100 nM | 8.6 µM | 3.5 µM | 11.6 µM | – | – | – | > 50 µM | > 50 µM | – | – | – | 2 fold | 32 fold | 87 fold | 1.23 fold | 2 µM | –
